Like-named read-outs stand apart in the source and are kept apart here.
Columns and labels:
[1] = test system: HBV rcDNA in AML12-HBV10 cells; test: AML12-HBV10 cell culture system, rcDNA quantitation using bDNA assay, MacSynergy II; type: cell-based, mouse hepatocyte cell line; details: for EC50: rcDNA, AML12-HBV10 cells, 48 hrs, read-out: Inhibitor EC50; for inhibition at 0.01 µM: Compound 3 0.010 μM; for inhibition at 0.02 µM: Compound 3 0.020 μM; for inhibition at 0.039 µM: Compound 3 0.039 μM; for inhibition at 0.078 µM: Compound 3 0.078 μM; for inhibition at 0.313 µM: Compound 3 0.313 μM; for inhibition at 0.625 µM: Compound 3 0.625 μM; for inhibition at 1.25 µM: Compound 3 1.250 μM
Protocol: In vitro combination studies were conducted using the method of Prichard and Shipman (Prichard M N, and Shipman C Jr., Antiviral Research, 1990, 14 (4-5), 181-205; and Prichard M N, et. al., MacSynergy II). The AML12-HBV10 cell line was developed as described in Campagna et al. (Campagna et. al., J. Virology, 2013, 87(12), 6931-6942). It is a mouse hepatocyte cell line stably transfected with the HBV genome, and which can express HBV pregenomic RNA and support HBV rcDNA (relaxed circular DNA) synthesis in a tetracycline-regulated manner. AML12-HBV10 cells were plated in 96 well tissue-culture treated microtiter plates in DMEM/F12 medium supplemented with 10% fetal bovine serum +1% penicillin-streptomycin without tetracycline and incubated in a humidified incubator at 37° C. and 5% CO2 overnight. […] The two inhibitors were tested both singly as well as in combinations in a checkerboard fashion such that each concentration of inhibitor A was combined with each concentration of inhibitor B to determine their combination effects on inhibition of rcDNA production. Following a 48 hour-incubation, the level of rcDNA present in the inhibitor-treated wells was measured using a bDNA assay (Affymetrix) with HBV specific custom probe set and manufacturer's instructions. […] Concurrently, the effect of inhibitor combinations on cell viability was assessed using replicate plates that were used to determine the ATP content as a measure of cell viability using the cell-titer glo reagent (Promega) as per manufacturer's instructions.

hepatitis B virus (HBV) [2] = test: Humanized liver chimeric mouse model of chronic HBV infection, serum HBV DNA by quantitative PCR; type: in vivo; details: mean
Protocol: (§1) This work was conducted in a well-established humanized liver chimeric mouse model of chronic hepatitis B virus (HBV) infection (Tsuge et al., Hepatology, 42(5), 1046-54 (2005)). A persistent level of HBV infection was established in the animals prior to the treatment phase which started at Day 0.
(§2) The anti-HBV effects were assessed based on serum HBsAg levels using the GS HBsAg EIA 3.0 enzyme linked immunosorbent assay kit from Bio-Rad Laboratories as per manufacturer instructions; and serum HBV DNA levels measured from total extracted DNA using a quantitative PCR assay (primer/probe sequences from Tanaka et al., Journal of Medical Virology, 72, 223-229 (2004)).

hepatitis B virus (HBV) [3] = test: Humanized liver chimeric mouse model of chronic HBV infection, serum HBsAg by EIA; type: in vivo; details: mean ± SEM
Protocol: as §1, §2

[4] = test system: D type HBV in primary human hepatocytes (HBeAg); test: microbe, parasite or virus in culture; type: cell-based; details: Hepatitis B virus, Hepatocyte
How it was run: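 HBeAg in day-8 culture supernatants was quantified by ELISA, and inhibition was calculated relative to DMSO-treated wells. Compounds were dosed from day 2 at seven 3-fold dilutions in triplicate, with medium changes every other day. The cells were Percoll-purified liver-perfusion hepatocytes infected with D-type HBV on day 1.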

[5] = Hepatitis B virus, AML12HBV10, in Mus musculus, ETV μM: 0.075, 0.025, 0.008, 0.003, 0.001, 0
[6] = Hepatitis B virus, AML12HBV10, in Mus musculus, SIRNA-NP μg/mL: 0.5, 0.167, 0.056, 0.019, 0.006, 0

Q: What does the source list for `CC[C@@H](C)NS(=O)(=O)c1ccc(F)c(C(=O)Nc2ccc(F)c(F)c2)c1` [Compound 3]?
A: EC50 ([1]; Hepatitis B virus, AML12HBV10, in Mus musculus, 48 h): 0.25 µM; inhibition at 0.01 µM [1, 5]: -3.19%; inhibition at 0.01 µM [1, 6]: -1.98%; inhibition at 0.02 µM [1, 5]: 0.62%; inhibition at 0.02 µM [1, 6]: -20.5%; inhibition at 0.039 µM [1, 5]: 7.38%; inhibition at 0.039 µM [1, 6]: -16.9%; inhibition at 0.078 µM [1, 5]: -1.81%; inhibition at 0.078 µM [1, 6]: 20.1%; inhibition at 0.313 µM [1, 5]: 71%; inhibition at 0.313 µM [1, 6]: 59.4%; inhibition at 0.625 µM [1, 5]: 80.8%; inhibition at 0.625 µM [1, 6]: 79.9%; inhibition at 1.25 µM [1, 5]: 86.7%; inhibition at 1.25 µM [1, 6]: 88.1%; inhibition at 2.5 µM ([1]; Hepatitis B virus, AML12HBV10, in Mus musculus, Compound 3 2.500 μM, ETV μM: 0.075, 0.025, 0.008, 0.003, 0.001, 0): 90.5%; inhibition at 2.5 µM ([1]; Hepatitis B virus, AML12HBV10, in Mus musculus, Compound 3 2.5 μM, SIRNA-NP μg/mL: 0.5, 0.167, 0.056, 0.019, 0.006, 0): 89.7%; EC50 [1]: 0.231 µM; Serum HBV DNA (hepatitis B virus (HBV) [2]; Day 0 (start of treatment), SEM in the line below): 1.70E+08 Copies/mL; Serum HBV DNA (hepatitis B virus (HBV) [2]; Day 7, Compound 3 oral 100 mg/kg twice daily, SIRNA-NP iv 3 mg/kg every 2 weeks, ETV oral 1.2 μg/kg daily, pegIFN α-2a sc 30 μg/kg twice a week): 1.33E+07 Copies/mL; Serum HBV DNA (hepatitis B virus (HBV) [2]; Day 14, same dosages): 1.28E+07 Copies/mL; Serum HBV DNA (hepatitis B virus (HBV) [2]; Day 21, same dosages): 1.02E+07 Copies/mL; Serum HBV DNA (hepatitis B virus (HBV) [2]; Day 28, same dosages): 1.17E+07 Copies/mL; Serum HBsAg (hepatitis B virus (HBV) [3]; Day 0 (start of treatment)): 2965 ± 616 IU/mL; Serum HBsAg (hepatitis B virus (HBV) [3]; Day 21, Compound 3 oral 100 mg/kg twice daily, SIRNA-NP iv 3 mg/kg every 2 weeks, ETV oral 1.2 μg/kg daily, pegIFN α-2a sc 30 μg/kg twice a week): 4158 ± 355 IU/mL; EC50 ([4]; 456 h, read-out: Inhibitor B EC50): 8.85 µM; EC50 ([4]; 576 h, read-out: Inhibitor B EC50 HBeAg): 8.58 µM; inhibition at 0.06173 µM ([4]; read-out: AVERAGE % INHIBITION HBeAg, COMPOUND 3 61.73 nM alone): -11.3%; inhibition at 0.18519 µM ([4]; read-out: AVERAGE % INHIBITION HBeAg, COMPOUND 3 185.19 nM alone): -16%; inhibition at 0.55556 µM ([4]; read-out: AVERAGE % INHIBITION HBeAg, COMPOUND 3 555.56 nM alone): -5.39%; inhibition at 1.66667 µM ([4]; read-out: AVERAGE % INHIBITION HBeAg, COMPOUND 3 1666.67 nM alone): 2.34%; inhibition at 5 µM ([4]; read-out: AVERAGE % INHIBITION HBeAg, COMPOUND 3 5000.00 nM alone): 27.3%; inhibition at 61.73 µM ([4]; read-out: AVERAGE % INHIBITION HBeAg, COMPOUND 3 61.73 μM alone): -11.1%; inhibition at 185.19 µM ([4]; read-out: AVERAGE % INHIBITION HBeAg, COMPOUND 3 185.19 μM alone): -4.9%; inhibition at 555.56 µM ([4]; read-out: AVERAGE % INHIBITION HBeAg, COMPOUND 3 555.56 μM alone): -1.02%; inhibition at 0.06859 µM ([4]; read-out: AVERAGE % INHIBITION, TAF 0.00 nM, COMPOUND 3 68.59 nM): -5.05%; inhibition at 0.20576 µM ([4]; read-out: AVERAGE % INHIBITION, TAF 0.00 nM, COMPOUND 3 205.76 nM): -6.33%; inhibition at 0.61728 µM ([4]; read-out: AVERAGE % INHIBITION, TAF 0.00 nM, COMPOUND 3 617.28 nM): 2.77%; inhibition at 1.85185 µM ([4]; read-out: AVERAGE % INHIBITION, TAF 0.00 nM, COMPOUND 3 1851.85 nM): 29.7%; inhibition at 5.55556 µM ([4]; read-out: AVERAGE % INHIBITION, TAF 0.00 nM, COMPOUND 3 5555.56 nM): 40.4%; EC50 ([4]; read-out: Inhibitor EC50): 8.85 µM

— US20220265817A1, “THERAPEUTIC COMPOSITIONS AND METHODS FOR TREATING HEPATITIS B” (priority 2017, published 2022)
